# How the values were obtained:
# Type in all cases: functional, cell-based
# SK-BR-3 = test: Antiproliferative activity against human SK-BR-3 cells assessed as reduction in cell viability incubated for 24 hrs by MTT assay; settings: SK-BR-3, 24 h
# MDA-MB-231 = test: Antiproliferative activity against human MDA-MB-231 cells assessed as reduction in cell viability incubated for 24 hrs by MTT assay; settings: MDA-MB-231, 24 h
# MCF-10A = test: Antiproliferative activity against human MCF-10A cells assessed as reduction in cell viability incubated for 24 hrs by MTT assay
IC50 (SK-BR-3) [µM],IC50 (MDA-MB-231) [µM],SMILES,IC50 (MCF-10A) [µM]
16.4,19.6,O=C(CCCCCCCCc1ccc(O)c(O)c1)c1c(O)cccc1O [MALABARICONE C],97.3
13.5,19.1,O=C(CCCCCCCCc1ccc(O)cc1)c1c(O)cccc1O [MALABARICONE B],62
> 50,20.8,COc1cccc2c1C(=O)c1c(O)c3c(c(O)c1C2=O)C[C@@](O)(C(=O)CO)C[C@@H]3O[C@H]1C[C@H](N)[C@H](O)[C@H](C)O1 [DOXORUBICIN],35.2
